Measurements taken from patent US7498300B2, “CRFR1 selective ligands” (The Salk Institute for Biological Studies, priority 2001, dated 2009).

What was measured:
[1] = test system: cultured rat pituitary cells; test: In vitro stimulation of ACTH and β-endorphin secretion by cultured rat pituitary cells; assay type: cell-based
Procedure: (§1) In vivo testing is carried out using the general procedure set forth in C.

[2] = In vivo lowering of blood pressure on peripheral administration; conditions: administered peripherally
Procedure: as §1

human CRFR1 = target: T1, human CRFR1 (Homo sapiens, UniProt P34998); test: Competitive binding assay, CHO cells stably expressing human CRFR1, displacement of 125I-(Nle21,Tyr32) ovine CRF
T1 construct: expressed in transfected cells
T1 sequence (P34998 24-415): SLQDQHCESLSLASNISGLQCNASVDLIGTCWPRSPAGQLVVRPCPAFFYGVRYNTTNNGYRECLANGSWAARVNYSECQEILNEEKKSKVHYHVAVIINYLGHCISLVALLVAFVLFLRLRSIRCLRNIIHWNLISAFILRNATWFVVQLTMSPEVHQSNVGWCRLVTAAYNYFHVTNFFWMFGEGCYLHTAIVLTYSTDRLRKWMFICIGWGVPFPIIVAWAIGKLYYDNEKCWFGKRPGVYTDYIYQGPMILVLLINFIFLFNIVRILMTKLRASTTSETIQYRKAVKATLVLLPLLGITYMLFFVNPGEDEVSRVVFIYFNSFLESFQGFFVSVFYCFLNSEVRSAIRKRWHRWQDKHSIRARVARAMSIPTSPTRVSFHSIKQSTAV
Procedure: Binding affinity is a term used to refer to the strength of interaction between ligand and receptor. […] Ki (inhibitory binding affinity constant) is determined using a “standard” or “tracer” radioactive ligand and thus measures the displacement of the tracer from the receptor or binding protein; it is most properly expressed with reference to such tracer. However, so long as these assays are carefully performed under specific conditions with relatively low concentrations of receptor or the like, the calculated Ki will be substantially the same as its dissociation constant KD. […] It is particularly efficient to test for Ki because only a single tracer need be labelled, e.g. radioiodinated.
Binding assays with cells expressing human CRFR1 are carried out as described in the Chen et al. P.N.A.S., supra. The affinities of test peptides for CRFR1 and CRFR2 stably expressed in CHO cells were determined by competitive displacement of ^125I-(Nle^21, Tyr^32) ovine CRF (for CRFR1) or of [^125I-Tyr^o-]Ucn (for CRFR2) as described.

human CRFR2 = target: T2, human CRFR2 (Homo sapiens, UniProt Q13324); test: Competitive binding assay, CHO cells stably expressing human CRFR2, displacement of [125I-Tyr0]Ucn
T2 construct: expressed in transfected cells
T2 sequence (Q13324 1-411): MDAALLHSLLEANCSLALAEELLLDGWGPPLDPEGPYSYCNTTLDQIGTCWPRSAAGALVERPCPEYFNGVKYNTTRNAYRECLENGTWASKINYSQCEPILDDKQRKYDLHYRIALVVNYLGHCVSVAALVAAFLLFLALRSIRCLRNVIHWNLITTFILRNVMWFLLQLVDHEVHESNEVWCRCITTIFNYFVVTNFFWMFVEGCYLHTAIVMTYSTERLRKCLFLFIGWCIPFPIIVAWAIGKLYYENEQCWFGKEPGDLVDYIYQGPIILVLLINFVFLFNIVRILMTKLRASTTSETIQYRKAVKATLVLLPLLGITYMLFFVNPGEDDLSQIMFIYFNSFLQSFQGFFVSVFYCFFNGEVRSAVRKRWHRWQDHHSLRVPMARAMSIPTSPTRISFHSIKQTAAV
Procedure: The affinities of test peptides for CRFR1 and CRFR2 stably expressed in CHO cells were determined by competitive displacement of ^125I-(Nle^21, Tyr^32) ovine CRF (for CRFR1) or of [^125I-Tyr^o-]Ucn (for CRFR2) as described.

CRFR2 = CRFR2 (Mus musculus, UniProt Q60748); conditions: Ruhmann et al., P.N.A.S. 95, 15264-15269 (1998); cited from earlier work
Chain of CRFR2 (Q60748 27-431 isoform Q60748-2 limits assumed): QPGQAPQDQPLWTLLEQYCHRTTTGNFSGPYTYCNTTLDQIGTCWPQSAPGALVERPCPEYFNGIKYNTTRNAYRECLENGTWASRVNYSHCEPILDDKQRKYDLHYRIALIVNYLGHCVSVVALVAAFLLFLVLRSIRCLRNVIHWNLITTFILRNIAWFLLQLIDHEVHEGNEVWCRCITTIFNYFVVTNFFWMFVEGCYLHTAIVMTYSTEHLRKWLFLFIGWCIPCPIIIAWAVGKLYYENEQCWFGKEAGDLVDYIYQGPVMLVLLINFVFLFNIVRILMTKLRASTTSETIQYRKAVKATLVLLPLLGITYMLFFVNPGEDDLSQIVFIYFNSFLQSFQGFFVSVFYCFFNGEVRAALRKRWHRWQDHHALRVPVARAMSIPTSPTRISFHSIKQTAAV

Row | binding to CRFR1 (in words) (human CRFR1) | binding to CRFR2 (in words) (human CRFR2) | Substance | stimulation of the secretion of ACTH and β-END-LI [1] | lowering of blood pressure [2] | antagonism for CRFR2 compared with the previously best reported compound (CRFR2)
1 | bind strongly | poorly | (cyclo 31-34)[Ac-Pro^4, D-Phe^12, Nle^21,38, Glu^31, Lys^34]-oCRF(4-41) [Example 2] | strongly stimulates | very significant lowering of blood pressure | –
2 | binds strongly | only very weakly | (cyclo 31-34)[Ac-Pro^4, D-Phe^12, Nle^21,38, Glu^31, Lys^34]-porcine CRF(4-41) [Example 3 C] | stimulates | very significant lowering of blood pressure | –
3 | – | – | [D-Phe^11, His^12]-sauvagine(11-40) | – | – | close to equal antagonism
